In patent publication US7220741B2, “1,4-diazabicycloalkane derivatives, their preparation and use” (NeuroSearch A/S, priority 2002, dated 2007):
Counter-ions that a name gives are not always drawn.

Target: T1, α7-subtype of nicotinic receptors (Rattus norvegicus, UniProt Q05941)
T1 construct: Cerebral cortices from male Wistar rats (150–250 g) are homogenised; from tissue; host or cells: rat cerebral cortex membrane homogenate (male Wistar rats)
Assay: In vitro inhibition of 3H-α-bungarotoxine binding in rat brain
Details: cerebral cortices from male Wistar rats, homogenate; 3H-α-bungarotoxine 2 nM; 2 hours at 37° C.

T1 sequence (Q05941 23-502): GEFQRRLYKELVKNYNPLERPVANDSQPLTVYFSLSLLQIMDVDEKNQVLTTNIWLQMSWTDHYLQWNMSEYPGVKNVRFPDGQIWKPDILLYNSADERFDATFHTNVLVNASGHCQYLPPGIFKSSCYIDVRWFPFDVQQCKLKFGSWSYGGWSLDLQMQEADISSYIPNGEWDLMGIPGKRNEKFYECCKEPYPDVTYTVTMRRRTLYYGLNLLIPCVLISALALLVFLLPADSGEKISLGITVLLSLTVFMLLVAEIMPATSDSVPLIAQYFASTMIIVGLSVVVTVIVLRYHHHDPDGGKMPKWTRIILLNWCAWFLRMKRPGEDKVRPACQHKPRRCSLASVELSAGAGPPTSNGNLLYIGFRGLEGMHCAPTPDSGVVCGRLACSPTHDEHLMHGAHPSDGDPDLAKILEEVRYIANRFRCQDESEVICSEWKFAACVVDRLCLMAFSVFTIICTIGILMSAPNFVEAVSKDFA

Compound | IC50 [nM]
O=C(O)/C=C/C(=O)O.c1csc(-c2nnc(N3CCN4CCC3CC4)o2)c1 [Compound D5, 4-[5-(2-Thienyl)-1,3,4-oxadiazol-2-yl]-1,4-diazabicyclo[3.2.2]nonane fumaric acid salt] | 22
c1ccc(-c2nnc(N3CCN4CCC3CC4)o2)cc1 [Compound D1, 4-(5-Phenyl-1,3,4-oxadiazol-2-yl)-1,4-diazabicyclo[3.2.2]nonane fumaric acid salt] | 5.8
c1ccc(-c2nnc(N3CCN4CCC3CC4)s2)cc1 [Compound 1A, 4-(5-Phenyl-1,3,4-thiadiazol-2-yl)-1,4-diazabicyclo[3.2.2]nonane fumaric acid salt] | 6.7

Tested on: not given
Assay: not given
Details: not given

Compound | melting point [°C]
O=C(O)/C=C/C(=O)O.c1coc(-c2nnc(N3CCN4CCC3CC4)o2)c1 | 175
O=C(O)/C=C/C(=O)O.c1csc(-c2nnc(N3CCN4CCC3CC4)o2)c1 [Compound D5, 4-[5-(2-Thienyl)-1,3,4-oxadiazol-2-yl]-1,4-diazabicyclo[3.2.2]nonane fumaric acid salt] | 161.8 to 162.7
Clc1ccc(-c2nnc(N3CCN4CCC3CC4)o2)cc1.O=C(O)/C=C/C(=O)O | 184.3 to 185.8
O=C(O)/C=C/C(=O)O.c1cc(-c2nnc(N3CCN4CCC3CC4)o2)ccn1 | 165.9 to 166.8
COc1ccc(-c2nnc(N3CCN4CCC3CC4)o2)cc1.O=C(O)/C=C/C(=O)O | 190.1 to 191.2
O=C(O)/C=C/C(=O)O.c1ccc(-c2ccc(-c3nnc(N4CCN5CCC4CC5)o3)cc2)cc1 | 238 to 239
O=C(O)/C=C/C(=O)O.c1ccc2cc(-c3nnc(N4CCN5CCC4CC5)o3)ccc2c1 | 194.6 to 195.7
O=C(O)/C=C/C(=O)O.c1cncc(-c2nnc(N3CCN4CCC3CC4)o2)c1 | 176.8 to 177.5
COc1cccc(-c2nnc(N3CCN4CCC3CC4)o2)c1.O=C(O)/C=C/C(=O)O | 126 to 164
